≈ marks a conversion by molar mass, not a printed value. Read-outs that look alike come from different tables or passages of the source.
Experiments:
[1] = target: KPC-2 (Klebsiella pneumoniae, UniProt Q9F663); assay: In vitro SBL inhibition assay (nitrocefin hydrolysis), IC50; assay type: biochemical
Experimental: (§1) Nitrocefin (Sigma-Aldrich, St Louis, MO, USA), a chromogenic cephalosporin antibiotic (λ, 482 nm; εM, 15,000 M^−1.cm^−1), was used as a reporter substrate at 100 µM for KPC-2, OXA-23, and OXA-48, at 200 µM for OXA-24 and OXA-51, and at 50 µM for OXA-58. Enzymes were preincubated in the presence of varying concentrations of each compound (0.006 to 3000 nM, diluted twofold in dimethyl sulfoxide (DMSO) for KPC-2, OXA-23, and OXA-48 assays and 0.51 to 10,000 nM diluted threefold in DMSO for OXA-24, OXA-51, and OXA-58) for 10 min at 30°C. Nitrocefin was then added and its hydrolysis by the uninhibited enzyme fraction was followed at an absorbance wavelength of 482 nm for 10 min at 30°C using Envision UV fluorescence plate reader (Perkin Elmer, Waltham, MA, USA). Hydrolysis rate data were used to determine inhibitory activities, expressed in IC50 values [corresponding to the compound concentration (µM) required to inhibit 50% of enzymatic reaction].

[2] = target: OXA-23 (Acinetobacter baumannii, UniProt Q9L4P2); assay: as above; assay type: biochemical; details: 10 min preincubation, 30°C, read-out: Enzyme IC50
OXA-23, sequence (Q9L4P2 18-273): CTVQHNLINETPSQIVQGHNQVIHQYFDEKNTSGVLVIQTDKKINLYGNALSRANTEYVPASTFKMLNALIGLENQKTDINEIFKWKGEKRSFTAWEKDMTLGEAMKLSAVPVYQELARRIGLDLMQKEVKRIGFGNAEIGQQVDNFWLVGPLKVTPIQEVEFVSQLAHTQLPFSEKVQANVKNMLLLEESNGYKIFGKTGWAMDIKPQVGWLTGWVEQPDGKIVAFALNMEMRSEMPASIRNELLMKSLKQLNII
Experimental: as §1

[3] = target: OXA-24/40 (Acinetobacter baumannii, UniProt Q8RLA6); assay: as above; assay type: biochemical; details: 10 min preincubation, 30°C, read-out: Enzyme IC50
OXA-24/40, sequence (Q8RLA6 22-275): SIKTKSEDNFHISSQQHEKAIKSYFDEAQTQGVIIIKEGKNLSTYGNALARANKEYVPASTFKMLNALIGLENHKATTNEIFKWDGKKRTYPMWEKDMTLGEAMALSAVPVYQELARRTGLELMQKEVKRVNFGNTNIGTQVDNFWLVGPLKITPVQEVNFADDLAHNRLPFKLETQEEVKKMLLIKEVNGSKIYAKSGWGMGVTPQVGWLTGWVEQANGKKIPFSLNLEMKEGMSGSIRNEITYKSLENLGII
Experimental: as §1

[4] = target: OXA-48 (Klebsiella pneumoniae, UniProt Q6XEC0); assay: as above; assay type: biochemical; details: 10 min preincubation, 30°C, read-out: Enzyme IC50
OXA-48, sequence (Q6XEC0 23-265, looked up, species assumed): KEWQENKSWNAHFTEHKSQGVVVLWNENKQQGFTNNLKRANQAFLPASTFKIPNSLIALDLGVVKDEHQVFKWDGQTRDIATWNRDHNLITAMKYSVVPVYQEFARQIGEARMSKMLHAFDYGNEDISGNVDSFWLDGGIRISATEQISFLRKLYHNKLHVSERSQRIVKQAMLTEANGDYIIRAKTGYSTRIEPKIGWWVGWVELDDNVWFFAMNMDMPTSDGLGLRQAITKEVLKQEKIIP
Experimental: as §1

[5] = target: OXA-51 (Acinetobacter baumannii, UniProt Q5QT35); assay: as above; assay type: biochemical, A. baumannii; details: 10 min preincubation, 30°C, read-out: Enzyme IC50
OXA-51, sequence (Q5QT35 entry or part of it): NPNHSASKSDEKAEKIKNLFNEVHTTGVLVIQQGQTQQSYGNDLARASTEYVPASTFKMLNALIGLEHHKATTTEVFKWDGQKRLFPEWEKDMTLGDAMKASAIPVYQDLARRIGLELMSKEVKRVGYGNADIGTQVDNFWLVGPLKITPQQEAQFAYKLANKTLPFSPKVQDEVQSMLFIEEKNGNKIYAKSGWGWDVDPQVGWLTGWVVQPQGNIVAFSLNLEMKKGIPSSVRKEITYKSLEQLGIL
Experimental: as §1

[6] = target: OXA-58 (Acinetobacter baumannii, UniProt Q2TR58); assay: as above; assay type: biochemical, A. baumannii
OXA-58, sequence (Q2TR58 19-280): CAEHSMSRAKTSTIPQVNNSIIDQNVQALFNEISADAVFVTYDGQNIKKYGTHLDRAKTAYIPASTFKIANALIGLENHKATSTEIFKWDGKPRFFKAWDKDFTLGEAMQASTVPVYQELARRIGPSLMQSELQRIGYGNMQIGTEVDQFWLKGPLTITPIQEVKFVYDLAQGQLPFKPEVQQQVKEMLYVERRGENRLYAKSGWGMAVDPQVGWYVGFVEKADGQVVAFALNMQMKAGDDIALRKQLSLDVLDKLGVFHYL
Experimental: as §1

[7] = test system: A. baumannii clinical isolates; assay: Broth microdilution MIC, A. baumannii clinical isolates; assay type: cell-based, Acinetobacter baumannii; details: for MIC50: read-out: MIC50
Experimental: (§2) All isolates were randomly selected from the frozen culture collection of IHMA collected in 2018 and 2019. Matrix-assisted laser desorption ionization-time of flight mass spectrometry was used to confirm the identity of the organisms tested (Bruker Daltonics, Bremen, Germany).
(§3) MICs for all antimicrobial agents were determined at IHMA by broth microdilution in accordance with both CLSI ([17]) and EUCAST ([18]) guidelines. Microtiter panels were prepared by IHMA and stored at −70°C in cation-adjusted Mueller Hinton broth (CAMHB) (Becton Dickinson). Iron-depleted CAMHB was used to test cefiderocol. Panels containing ANT3310 were prepared fresh on the day of testing. […] MIC values corresponded to the first well with no visible growth. Quality control testing was performed on each day of testing with E. coli ATCC 25922, P. aeruginosa ATCC 27853, K. pneumoniae ATCC 700603 and BAA 1705, and A. baumannii NCTC 13304. MICs were interpreted using 2023 CLSI ([17]) and EUCAST ([18]) BPs.

[8] = test system: OXA- or KPC-Enterobacterales clinical isolates; assay: Broth microdilution MIC, OXA- or KPC-positive Enterobacterales; assay type: cell-based
Experimental: as §2, §3

[9] = test system: P. aeruginosa clinical isolates; assay: Broth microdilution MIC, P. aeruginosa clinical isolates; assay type: cell-based, Pseudomonas aeruginosa; details: ANT3310 alone, P. aeruginosa N 502
Experimental: as §2, §3

[10] = test system: Enterobacterales, P. aeruginosa and A. baumannii clinical isolates; assay: Intrinsic antibacterial activity of ANT3310 alone, all 1,207 isolates; assay type: cell-based
Experimental: as §2, §3

[11] = test system: carbapenem-resistant Acinetobacter baumannii (CRAB) clinical isolates; assay: Broth microdilution MIC, CRAB isolates; assay type: cell-based; details: 2018 Global collection, CRAB (MEM MICs >4 µg/mL), N 363
Experimental: as §2, §3

[12] = test system: KPC-producing Enterobacterales (KPC-CRE); assay: organism not typed; assay type: cell-based
Experimental: as §2, §3

[13] = test system: OXA-producing Enterobacterales (OXA-CRE); assay: organism not typed; assay type: cell-based
Experimental: as §2, §3

[14] = test system: A. baumannii ACC00445 (OXA-23); assay: MIC against the isolate used in the infection models; assay type: cell-based; details: Acinetobacter baumannii
Experimental: as §3

[15] = ANT3310 alone, A. baumannii N 405
[16] = ANT3310 alone, OXA- or KPC-Enterobacterales N 300
[17] = 2018 Global collection, All A. baumannii, N 500

KPC-2, sequence (Q9F663 25-293 limits assumed): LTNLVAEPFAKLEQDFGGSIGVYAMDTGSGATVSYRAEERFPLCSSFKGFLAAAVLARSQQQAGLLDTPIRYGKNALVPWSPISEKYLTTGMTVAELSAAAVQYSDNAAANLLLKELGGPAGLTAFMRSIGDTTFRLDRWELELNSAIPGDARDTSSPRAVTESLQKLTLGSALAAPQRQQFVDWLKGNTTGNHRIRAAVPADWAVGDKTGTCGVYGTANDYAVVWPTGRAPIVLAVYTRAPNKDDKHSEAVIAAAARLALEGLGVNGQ

In the case of `O=C1N2C[C@@H](CC[C@H]2F)N1OS(=O)(=O)O` [ANT3310], the IC50 [1] is reported as 19.5 nM, the IC50 [2] is reported as 32.6 nM and the IC50 [3] is reported as 602 nM. It also gave an IC50 [4] of 179 nM, an IC50 [5] of 542 nM and an IC50 [6] of 8 nM. For the same molecule, the MIC90 [7, 15] was greater than 64 µg/mL, the “Number of isolates inhibited at MIC of 4 µg/mL” value [7, 15] was 1 and the “Number of isolates inhibited at MIC of 8 µg/mL” value [7, 15] was 4. For the same molecule, the “Number of isolates inhibited at MIC of 16 µg/mL” value [7, 15] was 1, the “Number of isolates inhibited at MIC of 32 µg/mL” value [7, 15] was 11 and the “Number of isolates inhibited at MIC of 64 µg/mL” value [7, 15] was 38. For the same molecule, the “Number of isolates inhibited at MIC of >64 µg/mL” value [7, 15] was 350, the MIC50 ([7]; Acinetobacter baumannii, ANT3310 alone, A. baumannii N 405) was 64 µg/mL (≈ 266 µM) and the MIC90 ([7]; Acinetobacter baumannii, ANT3310 alone, A. baumannii N 405, read-out: MIC90) was greater than 64 µg/mL. It also gave an MIC50 [8] greater than 64 µg/mL, an MIC90 [8] greater than 64 µg/mL and an MIC50 [8, 16] greater than 64 µg/mL. The MIC90 [8, 16] was greater than 64 µg/mL, the “Number of isolates inhibited at MIC of 8 µg/mL” value [8, 16] was 1 and the “Number of isolates inhibited at MIC of 32 µg/mL” value [8, 16] was 8. The “Number of isolates inhibited at MIC of 64 µg/mL” value [8, 16] was 234, the “Number of isolates inhibited at MIC of >64 µg/mL” value [8, 16] was 57 and the MIC50 [9] was greater than 64 µg/mL. For the same molecule, the MIC90 [9] was greater than 64 µg/mL, the “Number of isolates inhibited at MIC of 16 µg/mL” value [9] was 2 and the “Number of isolates inhibited at MIC of 32 µg/mL” value [9] was 9. For the same molecule, the “Number of isolates inhibited at MIC of 64 µg/mL” value [9] was 15, the “Number of isolates inhibited at MIC of >64 µg/mL” value [9] was 476 and the MIC50 ([9]; Pseudomonas aeruginosa, read-out: MIC50) was greater than 64 µg/mL. For the same molecule, the MIC90 ([9]; Pseudomonas aeruginosa, read-out: MIC90) was greater than 64 µg/mL, the Intrinsic antibacterial activity ([10]; ANT3310 alone, 1,207 isolates) was “No clinically significant antibacterial activity” and the “Number of isolates with ANT3310 MICs ≤8 µg/mL” value ([10]; of the 1,207 isolates tested, ANT3310 alone) was 6.
`CC1=C[C@@H]2CN(C(=O)N2OS(=O)(=O)O)[C@@H]1C(N)=O` [Dur, durlobactam] showed an IC50 [1] of 5.3 nM, an IC50 [2] of 347 nM and an IC50 [3] of 208 nM. It also gave an IC50 [4] of 3.4 nM, an IC50 [5] of 4300 nM and an IC50 [6] of 11 nM.
`O=C(NNC(=O)[C@@H]1CC[C@@H]2CN1C(=O)N2OS(=O)(=O)O)[C@@H]1CCCNC1` [Zid, zidebactam] gave an IC50 [1] of 38.9 nM, an IC50 [2] greater than 3000 nM and an IC50 [3] greater than 10000 nM. For the same molecule, the IC50 [5] was greater than 10000 nM and the IC50 [6] was greater than 10000 nM.
For `CN(C)c1cc(NC(=O)CNC(C)(C)C)c(O)c2c1C[C@H]1C[C@H]3[C@H](N(C)C)C(O)=C(C(N)=O)C(=O)[C@@]3(O)C(O)=C1C2=O` [Tigecycline, tigecycline], the “Number of isolates inhibited at MIC of 0.25 µg/mL” value [7, 17] was 40, the “Number of isolates inhibited at MIC of 0.5 µg/mL” value [7, 17] was 41 and the “Number of isolates inhibited at MIC of 1 µg/mL” value [7, 17] was 76. For the same molecule, the “Number of isolates inhibited at MIC of 2 µg/mL” value [7, 17] was 162, the “Number of isolates inhibited at MIC of 4 µg/mL” value [7, 17] was 140 and the “Number of isolates inhibited at MIC of 8 µg/mL” value [7, 17] was 31. For the same molecule, the “Number of isolates inhibited at MIC of 16 µg/mL” value [7, 17] was 4, the “Number of isolates inhibited at MIC of ≤0.125 µg/mL” value [7, 17] was 6 and the MIC50 ([7]; Acinetobacter baumannii, 2018 Global collection, All A. baumannii, N 500) was 2 µg/mL (≈ 3.41 µM). For the same molecule, the MIC90 ([7]; Acinetobacter baumannii, 2018 Global collection, All A. baumannii, N 500, read-out: MIC90) was 4 µg/mL (≈ 6.83 µM), the MIC90 ([7]; Acinetobacter baumannii, A. baumannii, one or both of the 2018/2019 collections, read-out: MIC90) was 4 µg/mL (≈ 6.83 µM) and the “Number of isolates inhibited at MIC of 0.5 µg/mL” value [11] was 7. The “Number of isolates inhibited at MIC of 1 µg/mL” value [11] was 48, the “Number of isolates inhibited at MIC of 2 µg/mL” value [11] was 146 and the “Number of isolates inhibited at MIC of 4 µg/mL” value [11] was 131. For the same molecule, the “Number of isolates inhibited at MIC of 8 µg/mL” value [11] was 28, the “Number of isolates inhibited at MIC of 16 µg/mL” value [11] was 3 and the MIC50 ([11]; Acinetobacter baumannii, read-out: MIC50) was 2 µg/mL (≈ 3.41 µM). The MIC90 ([11]; Acinetobacter baumannii, read-out: MIC90) was 4 µg/mL (≈ 6.83 µM), the MIC50 [12] was 1 µg/mL (≈ 1.71 µM) and the MIC90 [12] was 4 µg/mL (≈ 6.83 µM). It also gave an MIC50 [13] of 2 µg/mL (≈ 3.41 µM), an MIC90 [13] of 4 µg/mL (≈ 6.83 µM) and an MIC [14] of 2 µg/mL (≈ 3.41 µM).
`O=C(O)C[C@@H]1CC[C@H](NC(=O)Cc2cccs2)B(O)O1` [Vab, vaborbactam] showed an IC50 ([1]; KPC-2, 10 min preincubation, 30°C, read-out: Enzyme IC50) of 102 nM, an IC50 [2] greater than 3000 nM and an IC50 [4] greater than 3000 nM. The IC50 [6] was greater than 10000 nM.
Work on `NCCN[C@H]1CC[C@H](CC(=O)N[C@H]2Cc3cccc(C(=O)O)c3OB2O)CC1` [Tan, taniborbactam] yielded an IC50 [1] of 15.8 nM, an IC50 [2] greater than 3000 nM and an IC50 [3] greater than 10000 nM. For the same molecule, the IC50 [4] was 1560 nM, the IC50 [5] was greater than 10000 nM and the IC50 [6] was greater than 10000 nM.
Molecule `O=C(NC1CCNCC1)[C@@H]1CC[C@@H]2CN1C(=O)N2OS(=O)(=O)O` (relative stereo) [Rel, relebactam] has an IC50 [2] greater than 3000 nM, an IC50 [3] greater than 10000 nM and an IC50 [5] greater than 10000 nM. It also gave an IC50 [6] greater than 10000 nM.
For `NCCONC(=O)[C@@H]1CC[C@@H]2CN1C(=O)N2OS(=O)(=O)O` [Nac, nacubactam], the IC50 [1] was 27.2 nM, the IC50 [2] was greater than 3000 nM and the IC50 [3] was greater than 10000 nM. For the same molecule, the IC50 [4] was greater than 3000 nM, the IC50 [5] was greater than 10000 nM and the IC50 [6] was greater than 10000 nM.

Source: PMC10916402, “Meropenem-ANT3310, a unique β-lactam-β-lactamase inhibitor combination with expanded antibacterial spectrum against Gram-negative pathogens including carbapenem-resistant Acinetobacter baumannii” (Antimicrobial Agents and Chemotherapy, 2024)
